{"source": "paper PMC8989888", "about": "“Development of optimized drug-like small molecule inhibitors of the SARS-CoV-2 3CL protease for treatment of COVID-19” (Nature Communications, 2022)", "key": {"PLpro": {"target": "PLpro (Severe acute respiratory syndrome coronavirus 2, UniProt P0DTD1)", "test": "Protease selectivity panel: PLpro", "assay_type": "biochemical", "conditions": "SARS-CoV-2 recombinant"}, "MMP 1": {"target": "MMP 1 (Homo sapiens, UniProt P03956)", "sequence (P03956 100-268)": "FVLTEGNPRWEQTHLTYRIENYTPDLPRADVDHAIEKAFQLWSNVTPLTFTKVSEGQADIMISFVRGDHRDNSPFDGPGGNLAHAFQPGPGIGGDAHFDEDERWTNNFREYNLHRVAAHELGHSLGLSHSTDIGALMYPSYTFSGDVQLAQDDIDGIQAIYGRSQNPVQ", "test": "biochemical"}, "Cathepsin B": {"target": "Cathepsin B (Homo sapiens, UniProt P07858)", "test": "biochemical"}, "Factor Xa": {"target": "Factor Xa (Homo sapiens, UniProt P00742)", "sequence (P00742 235-488)": "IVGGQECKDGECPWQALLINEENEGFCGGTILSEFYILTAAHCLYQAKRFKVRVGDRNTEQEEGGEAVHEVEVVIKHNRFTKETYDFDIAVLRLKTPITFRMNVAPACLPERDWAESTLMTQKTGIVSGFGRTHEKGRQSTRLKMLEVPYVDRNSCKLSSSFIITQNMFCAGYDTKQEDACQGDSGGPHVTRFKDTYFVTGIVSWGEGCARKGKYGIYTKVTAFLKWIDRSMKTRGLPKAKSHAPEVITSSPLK", "sequence (P00742 41-179)": "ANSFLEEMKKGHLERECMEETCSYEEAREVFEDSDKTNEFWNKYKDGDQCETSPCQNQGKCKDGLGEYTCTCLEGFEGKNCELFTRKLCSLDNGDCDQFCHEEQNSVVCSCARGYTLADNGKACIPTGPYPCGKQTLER", "test": "biochemical"}, "[1]": {"system": "Influenza A H1N1 (strain: California/07/2009)", "test": "microbe, parasite or virus in culture", "assay_type": "cell-based"}, "Caspase 8": {"target": "Caspase 8 (Homo sapiens, UniProt Q14790)", "sequence (Q14790 217-479)": "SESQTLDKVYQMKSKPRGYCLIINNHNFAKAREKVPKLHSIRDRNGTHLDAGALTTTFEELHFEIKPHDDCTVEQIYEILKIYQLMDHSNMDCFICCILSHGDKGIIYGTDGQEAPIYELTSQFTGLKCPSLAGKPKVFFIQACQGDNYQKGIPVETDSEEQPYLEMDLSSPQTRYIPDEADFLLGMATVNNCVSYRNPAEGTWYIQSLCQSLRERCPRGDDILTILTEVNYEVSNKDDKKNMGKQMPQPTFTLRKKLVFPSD", "test": "biochemical"}, "SARS-CoV-2 [2]": {"target": "SARS-CoV-2", "test": "cell-based"}, "Thrombin a": {"target": "Thrombin a (Homo sapiens, UniProt P00734)", "test": "biochemical"}, "Cathepsin S": {"target": "Cathepsin S (Homo sapiens, UniProt P25774)", "sequence (P25774 115-331)": "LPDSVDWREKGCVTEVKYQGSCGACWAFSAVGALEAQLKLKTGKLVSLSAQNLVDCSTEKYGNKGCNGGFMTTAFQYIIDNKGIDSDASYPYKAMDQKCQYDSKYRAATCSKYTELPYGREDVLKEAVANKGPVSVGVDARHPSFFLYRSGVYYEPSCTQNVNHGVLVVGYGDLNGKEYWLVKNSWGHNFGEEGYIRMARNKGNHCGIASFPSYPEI", "test": "Protease selectivity panel: Cathepsin S"}, "Furin": {"target": "Furin (Homo sapiens, UniProt P09958)", "sequence (P09958 108-715)": "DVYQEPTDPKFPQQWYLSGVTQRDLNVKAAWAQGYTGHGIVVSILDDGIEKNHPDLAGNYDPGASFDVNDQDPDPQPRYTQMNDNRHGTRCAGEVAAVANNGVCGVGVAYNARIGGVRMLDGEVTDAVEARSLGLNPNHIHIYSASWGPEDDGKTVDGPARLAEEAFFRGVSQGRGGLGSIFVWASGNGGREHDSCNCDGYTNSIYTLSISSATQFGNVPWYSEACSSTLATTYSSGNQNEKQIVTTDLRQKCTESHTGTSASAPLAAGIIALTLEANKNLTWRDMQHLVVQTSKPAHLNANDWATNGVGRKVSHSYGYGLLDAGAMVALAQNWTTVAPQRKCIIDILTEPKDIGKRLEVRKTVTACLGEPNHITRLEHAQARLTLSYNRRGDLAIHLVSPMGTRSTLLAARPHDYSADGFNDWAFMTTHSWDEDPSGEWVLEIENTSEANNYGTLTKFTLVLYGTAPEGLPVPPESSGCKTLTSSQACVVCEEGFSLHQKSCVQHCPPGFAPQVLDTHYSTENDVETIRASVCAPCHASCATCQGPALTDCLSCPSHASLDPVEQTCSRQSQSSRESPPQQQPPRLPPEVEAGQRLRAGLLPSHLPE", "test": "biochemical"}, "TMPRSS2": {"target": "TMPRSS2 (Homo sapiens, UniProt O15393)", "sequence (O15393 106-492)": "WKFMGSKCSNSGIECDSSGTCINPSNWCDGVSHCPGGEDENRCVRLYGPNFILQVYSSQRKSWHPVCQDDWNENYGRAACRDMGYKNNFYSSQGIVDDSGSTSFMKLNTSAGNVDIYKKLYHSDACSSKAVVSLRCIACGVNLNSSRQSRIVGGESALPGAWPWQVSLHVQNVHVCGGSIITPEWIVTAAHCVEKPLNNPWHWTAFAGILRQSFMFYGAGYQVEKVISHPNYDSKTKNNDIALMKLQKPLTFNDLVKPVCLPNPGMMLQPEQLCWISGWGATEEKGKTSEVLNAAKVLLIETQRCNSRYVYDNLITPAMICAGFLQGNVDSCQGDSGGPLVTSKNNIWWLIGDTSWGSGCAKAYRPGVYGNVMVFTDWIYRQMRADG", "test": "biochemical"}, "in vitro [3]": {"test": "in vitro"}, "SARS-CoV-2 3CL protease [4]": {"target": "T1, SARS-CoV-2 3CL protease (Severe acute respiratory syndrome coronavirus 2, UniProt P0DTD1)", "test": "biochemical"}, "SARS-CoV-2 [5]": {"system": "SARS-CoV-2", "test": "microbe, parasite or virus in culture", "assay_type": "cell-based", "conditions": "for EC50: Severe acute respiratory syndrome coronavirus 2, 24 h, read-out: SARS-CoV-2 Huh-7ACE2 EC50"}, "SARS-CoV-2 [6]": {"system": "SARS-CoV-2", "test": "microbe, parasite or virus in culture", "assay_type": "cell-based", "conditions": "Severe acute respiratory syndrome coronavirus 2, read-out: SARS-CoV-2 EC50"}, "SARS-CoV-2 [7]": {"system": "SARS-CoV-2", "test": "microbe, parasite or virus in culture", "conditions": "Severe acute respiratory syndrome coronavirus 2, Caco-2, 72 h, read-out: SARS-CoV-2 Caco-2 EC90"}, "Elastase": {"target": "Elastase (Homo sapiens, UniProt P08246)", "sequence (P08246 30-267)": "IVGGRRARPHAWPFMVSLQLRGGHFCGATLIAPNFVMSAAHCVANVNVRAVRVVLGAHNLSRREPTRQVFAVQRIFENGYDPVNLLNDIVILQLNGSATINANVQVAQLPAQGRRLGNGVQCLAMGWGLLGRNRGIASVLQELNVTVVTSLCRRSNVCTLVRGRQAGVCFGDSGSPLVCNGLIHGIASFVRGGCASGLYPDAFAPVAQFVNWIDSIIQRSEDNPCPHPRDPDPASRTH", "test": "biochemical"}, "[8]": {"system": "Human coronavirus beta (strain: OC43)", "test": "organism not typed", "assay_type": "cell-based, HCoV-OC43", "conditions": "Huh-7, read-out: EC50, human coronavirus OC43"}, "SARS-CoV-2 3CL protease [9]": {"target": "T1, SARS-CoV-2 3CL protease", "test": "biochemical", "remark": "listed apart in the source"}, "SARS-CoV-2 [10]": {"system": "SARS-CoV-2", "test": "microbe, parasite or virus in culture", "assay_type": "cell-based"}, "Cathepsin L [11]": {"target": "T2, Cathepsin L (Homo sapiens, UniProt P07711)", "T2 construct": "Human liver; from tissue; host or cells: human liver", "T2 sequence (P07711 114-333)": "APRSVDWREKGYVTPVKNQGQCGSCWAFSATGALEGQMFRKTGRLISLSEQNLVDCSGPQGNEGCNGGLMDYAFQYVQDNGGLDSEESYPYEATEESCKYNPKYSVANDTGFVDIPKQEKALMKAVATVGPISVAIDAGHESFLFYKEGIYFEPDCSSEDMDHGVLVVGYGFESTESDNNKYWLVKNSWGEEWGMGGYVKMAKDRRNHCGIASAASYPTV", "test": "Protease selectivity panel: Cathepsin L", "assay_type": "biochemical"}, "ACE2": {"target": "ACE2 (Homo sapiens, UniProt Q9BYF1)", "sequence (Q9BYF1 18-740)": "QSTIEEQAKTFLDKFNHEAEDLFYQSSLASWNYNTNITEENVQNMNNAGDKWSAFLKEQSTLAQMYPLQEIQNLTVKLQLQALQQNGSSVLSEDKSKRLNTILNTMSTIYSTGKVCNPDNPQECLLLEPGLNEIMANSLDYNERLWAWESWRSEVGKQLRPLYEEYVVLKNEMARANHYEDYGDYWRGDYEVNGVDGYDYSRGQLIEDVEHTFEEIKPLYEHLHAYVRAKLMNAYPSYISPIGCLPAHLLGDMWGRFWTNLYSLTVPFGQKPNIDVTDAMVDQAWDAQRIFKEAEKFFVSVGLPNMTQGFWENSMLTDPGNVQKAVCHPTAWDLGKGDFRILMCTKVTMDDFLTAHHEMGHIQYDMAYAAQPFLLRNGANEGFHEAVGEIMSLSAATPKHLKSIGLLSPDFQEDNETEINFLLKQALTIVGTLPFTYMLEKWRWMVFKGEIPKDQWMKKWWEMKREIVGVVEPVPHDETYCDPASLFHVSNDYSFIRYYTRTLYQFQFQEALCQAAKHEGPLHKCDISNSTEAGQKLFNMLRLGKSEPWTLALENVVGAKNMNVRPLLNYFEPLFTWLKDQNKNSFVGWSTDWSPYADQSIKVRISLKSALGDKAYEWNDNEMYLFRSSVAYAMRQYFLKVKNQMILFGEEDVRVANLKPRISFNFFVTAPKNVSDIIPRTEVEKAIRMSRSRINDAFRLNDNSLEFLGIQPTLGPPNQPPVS", "test": "biochemical"}, "[12]": {"system": "SARS coronavirus (strain: Urbani)", "test": "organism not typed", "assay_type": "cell-based, SARS-CoV"}, "Cathepsin K": {"target": "Cathepsin K (Homo sapiens, UniProt P43235)", "sequence (P43235 115-329)": "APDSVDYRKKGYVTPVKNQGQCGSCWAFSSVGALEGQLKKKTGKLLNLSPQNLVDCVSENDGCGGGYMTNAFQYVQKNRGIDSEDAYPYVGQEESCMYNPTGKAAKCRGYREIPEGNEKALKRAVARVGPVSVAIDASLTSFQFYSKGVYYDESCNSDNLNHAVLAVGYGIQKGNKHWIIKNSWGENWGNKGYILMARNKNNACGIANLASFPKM", "test": "Protease selectivity panel: Cathepsin K"}, "Trypsin": {"target": "Trypsin (Bos taurus, UniProt P00760)", "sequence (P00760 24-246)": "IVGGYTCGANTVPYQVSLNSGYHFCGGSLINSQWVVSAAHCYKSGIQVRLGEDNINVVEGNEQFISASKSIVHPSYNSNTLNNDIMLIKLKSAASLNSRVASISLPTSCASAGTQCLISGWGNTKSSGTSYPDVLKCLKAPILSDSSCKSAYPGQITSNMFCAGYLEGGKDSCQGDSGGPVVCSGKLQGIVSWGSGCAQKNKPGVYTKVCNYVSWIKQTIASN", "test": "Protease selectivity panel: Trypsin", "assay_type": "biochemical", "conditions": "Bovine pancreas"}, "ACE1": {"target": "ACE1 (Homo sapiens, UniProt P12821)", "sequence (P12821 30-1261)": "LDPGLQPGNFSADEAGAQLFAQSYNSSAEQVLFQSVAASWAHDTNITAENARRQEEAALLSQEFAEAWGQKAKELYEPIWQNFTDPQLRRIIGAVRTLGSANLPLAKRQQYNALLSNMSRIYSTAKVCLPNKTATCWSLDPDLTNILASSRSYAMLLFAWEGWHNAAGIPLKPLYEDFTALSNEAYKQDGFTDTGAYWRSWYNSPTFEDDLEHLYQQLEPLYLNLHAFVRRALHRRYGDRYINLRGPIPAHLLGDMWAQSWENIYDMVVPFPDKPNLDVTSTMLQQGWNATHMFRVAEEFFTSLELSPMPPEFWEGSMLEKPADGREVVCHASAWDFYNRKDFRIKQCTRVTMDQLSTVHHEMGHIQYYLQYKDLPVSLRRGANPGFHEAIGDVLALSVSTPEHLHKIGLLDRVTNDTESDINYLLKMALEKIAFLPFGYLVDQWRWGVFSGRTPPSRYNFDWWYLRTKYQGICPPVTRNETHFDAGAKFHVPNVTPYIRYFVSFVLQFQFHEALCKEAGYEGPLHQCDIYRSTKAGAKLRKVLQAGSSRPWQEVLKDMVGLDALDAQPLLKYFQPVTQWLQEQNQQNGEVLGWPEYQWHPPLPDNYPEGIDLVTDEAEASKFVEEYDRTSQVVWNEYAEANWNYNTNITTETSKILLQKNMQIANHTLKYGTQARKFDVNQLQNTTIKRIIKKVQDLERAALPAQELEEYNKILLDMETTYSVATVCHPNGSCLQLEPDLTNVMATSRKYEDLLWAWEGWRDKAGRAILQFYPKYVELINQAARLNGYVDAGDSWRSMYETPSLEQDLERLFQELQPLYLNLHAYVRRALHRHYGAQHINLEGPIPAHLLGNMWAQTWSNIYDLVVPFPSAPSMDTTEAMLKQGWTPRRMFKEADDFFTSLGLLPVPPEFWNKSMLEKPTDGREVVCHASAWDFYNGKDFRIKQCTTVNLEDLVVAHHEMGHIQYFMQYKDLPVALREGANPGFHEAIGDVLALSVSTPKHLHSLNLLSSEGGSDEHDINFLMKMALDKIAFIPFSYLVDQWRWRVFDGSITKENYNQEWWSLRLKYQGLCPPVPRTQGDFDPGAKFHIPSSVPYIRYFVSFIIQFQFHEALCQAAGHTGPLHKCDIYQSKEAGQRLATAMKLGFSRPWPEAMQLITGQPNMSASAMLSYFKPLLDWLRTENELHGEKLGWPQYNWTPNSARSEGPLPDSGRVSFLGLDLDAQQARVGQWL", "test": "biochemical"}, "[13]": {"system": "Human coronavirus alpha (strain: 229E)", "test": "organism not typed", "assay_type": "cell-based, HCoV-229E", "conditions": "Huh-7, read-out: EC50, human coronavirus 229E"}, "Urokinase": {"target": "Urokinase (Homo sapiens, UniProt P00749)", "test": "biochemical"}, "physchem": {"test": "physchem", "conditions": "aqueous buffer, kinetic from dmso stock"}, "in vitro [14]": {"test": "in vitro", "conditions": "CD-1, mouse, plasma"}, "in vitro [15]": {"test": "in vitro", "conditions": "human, plasma"}, "human chymotrypsin": {"system": "human chymotrypsin", "test": "Chymotrypsin activity assay (Panc-1 cell lysate)", "assay_type": "biochemical"}, "in vitro [16]": {"test": "in vitro", "conditions": "human, microsomes, pH 7.4"}, "in vitro [17]": {"test": "in vitro", "conditions": "CD-1, mouse, microsomes, pH 7.4"}, "Cathepsin L [18]": {"target": "T2, Cathepsin L", "conditions": "read-out: IC50 on human cathepsin L; cited from earlier work"}, "[19]": {"conditions": "Severe acute respiratory syndrome coronavirus 2, Vero C1008, read-out: SARS-CoV-2 Vero E6 EC50"}}, "note": "Values joined by “and” are separate entries in the source; they are usually repeats but may differ in a detail not shown here. Equal entries are not always repeated. Where two headings read alike, the source gives them in different places.", "data": [{"compound": "CC(C)C[C@H](NC(=O)OCc1ccccc1Cl)C(=O)N[C@@H](C[C@@H]1CCNC1=O)C(O)S(=O)(=O)O", "note": "(stereo partly drawn) [EB54]", "values": [{"measurement": "IC50", "setting": "PLpro", "value": "> 100000", "unit": "nM"}, {"measurement": "IC50", "setting": "MMP 1", "value": "> 100000", "unit": "nM"}, {"measurement": "IC50", "setting": "Cathepsin B", "value": 350, "unit": "nM"}, {"measurement": "IC50", "setting": "Factor Xa", "value": "> 100000", "unit": "nM"}, {"measurement": "effect on replication of Influenza H1N1 (in words)", "setting": "[1]", "value": "no effect was observed"}, {"measurement": "EC50", "setting": "[1]; Influenza A virus, H1N1, MDCK, read-out: Influenza A (H1N1) MDCK EC50", "value": "> 100000", "unit": "nM"}, {"measurement": "IC50", "setting": "Caspase 8", "value": 52000, "unit": "nM"}, {"measurement": "EC50", "setting": "SARS-CoV-2 [2]", "value": 1200, "unit": "nM"}, {"measurement": "IC50", "setting": "Thrombin a", "value": "> 100000", "unit": "nM"}, {"measurement": "IC50", "setting": "Cathepsin S", "value": 6, "unit": "nM"}, {"measurement": "IC50", "setting": "Furin", "value": "> 100000", "unit": "nM"}, {"measurement": "IC50", "setting": "TMPRSS2", "value": "> 100000", "unit": "nM"}, {"measurement": "CC50", "setting": "in vitro [3]", "value": "> 100000", "unit": "nM"}, {"measurement": "observed inactivation rate vs compound concentration (Figure S19, replicate values)", "setting": "SARS-CoV-2 3CL protease [4]", "value": "0.0534 and -0.00333 and 0.0463 and 0.0575 and 0.0117 and 0.0408 and 0.0199 and 0.0198 and 0.0352 and 0.0468 and 0.0351 and 0.0076"}, {"measurement": "kinact/KI", "setting": "SARS-CoV-2 3CL protease [4]; read-out: SARS-CoV-2 3CLpro kinact/KI", "value": 88300, "unit": "M⁻¹ s⁻¹"}, {"measurement": "inhibition of SARS-CoV-2 (Figure s17b dose-response, replicate values)", "setting": "SARS-CoV-2 [5]", "value": "99.8698 and 98.0961 and 101.644 and 87.6327 and 101.522 and 73.7431 and 78.1084 and 77.7143 and 78.5024 and 57.3714 and 60.2928 and 54.45 and 31.9222 and 32.9312 and 30.9133 and 24.3408 and 28.9565 and 19.7251 and 10.4228 and 9.535 and 11.3102"}, {"measurement": "EC50", "setting": "SARS-CoV-2 [5]", "value": 5, "unit": "nM"}, {"measurement": "EC50", "setting": "SARS-CoV-2 [6]", "value": 28, "unit": "nM"}, {"measurement": "EC90", "setting": "SARS-CoV-2 [7]", "value": 190, "unit": "nM"}, {"measurement": "IC50", "setting": "Elastase", "value": "> 100000", "unit": "nM"}, {"measurement": "EC50", "setting": "[8]", "value": "< 100", "unit": "nM"}, {"measurement": "IC50", "setting": "SARS-CoV-2 3CL protease [9]; 20 nM protease, read-out: SARS-CoV-2 3CLpro IC50", "value": 29, "unit": "nM"}, {"measurement": "normalized activity, dose-response curve (Figure S16)", "setting": "SARS-CoV-2 3CL protease [9]; Concentration of inhibitor (nM) 0.19382", "value": "97.3415 and 94.0287"}, {"measurement": "normalized activity, dose-response curve (Figure S16)", "setting": "SARS-CoV-2 3CL protease [9]; Concentration of inhibitor (nM) 0.49485", "value": "94.642 and 94.4552"}, {"measurement": "normalized activity, dose-response curve (Figure S16)", "setting": "SARS-CoV-2 3CL protease [9]; Concentration of inhibitor (nM) 0.79588", "value": "92.0244 and 86.0411"}, {"measurement": "normalized activity, dose-response curve (Figure S16)", "setting": "SARS-CoV-2 3CL protease [9]; Concentration of inhibitor (nM) 1.09691", "value": "76.1141 and 67.8169"}, {"measurement": "normalized activity, dose-response curve (Figure S16)", "setting": "SARS-CoV-2 3CL protease [9]; Concentration of inhibitor (nM) 1.39794", "value": "59.5493 and 51.609"}, {"measurement": "normalized activity, dose-response curve (Figure S16)", "setting": "SARS-CoV-2 3CL protease [9]; Concentration of inhibitor (nM) 1.69897", "value": "35.2953 and 26.9095"}, {"measurement": "normalized activity, dose-response curve (Figure S16)", "setting": "SARS-CoV-2 3CL protease [9]; Concentration of inhibitor (nM) 2.30103", "value": "1.552 and 1.745"}, {"measurement": "normalized activity, dose-response curve (Figure S16)", "setting": "SARS-CoV-2 3CL protease [9]; Concentration of inhibitor (nM) 2.60206", "value": "1.143 and 0.9691"}, {"measurement": "normalized activity, dose-response curve (Figure S16)", "setting": "SARS-CoV-2 3CL protease [9]; Concentration of inhibitor (nM) -0.10721", "value": "100.286 and 100.194"}, {"measurement": "normalized activity, dose-response curve (Figure S16)", "setting": "SARS-CoV-2 3CL protease [9]; Concentration of inhibitor (nM) -0.40824", "value": 100}, {"measurement": "EC50", "setting": "SARS-CoV-2 [10]; [19]", "value": 2000, "unit": "nM"}, {"measurement": "IC50", "setting": "Cathepsin L [11]; Human liver, substrate 1 (Z-FR-AMC), […] Cathepsin L, read-out: IC50", "value": 1, "unit": "nM"}, {"measurement": "IC50", "setting": "Cathepsin L [11]; Human liver, substrate 2 (MCA-PLGL-Dap(Dnp)-AR-NH2), 0.5 nM Cathepsin L, read-out: IC50", "value": 6, "unit": "nM"}, {"measurement": "IC50", "setting": "Cathepsin L [11]; read-out: IC50 on human cathepsin L", "value": 1, "unit": "nM"}, {"measurement": "IC50", "setting": "ACE2", "value": "> 100000", "unit": "nM"}, {"measurement": "EC50", "setting": "[12]; Vero 76, read-out: SARS-CoV Vero 76 EC50", "value": "< 3000", "unit": "nM"}, {"measurement": "EC50", "setting": "[12]; read-out: SARS-CoV Vero 76 EC50", "value": 2400, "unit": "nM"}, {"measurement": "IC50", "setting": "Cathepsin K", "value": 20, "unit": "nM"}, {"measurement": "IC50", "setting": "Trypsin", "value": "> 100000", "unit": "nM"}, {"measurement": "IC50", "setting": "ACE1", "value": "> 100000", "unit": "nM"}, {"measurement": "EC50", "setting": "[13]", "value": "< 100", "unit": "nM"}, {"measurement": "IC50", "setting": "Urokinase", "value": "> 100000", "unit": "nM"}]}, {"compound": "CC(C)CC(NC(=O)OCc1ccccc1)C(=O)NC(CC1CCNC1=O)C(O)S(=O)(=O)O", "note": "(stereo not drawn) [GC376, reference compound]", "values": [{"measurement": "solubility", "setting": "physchem", "value": "≤ 1000", "unit": "µM"}, {"measurement": "half-life", "setting": "in vitro [14]", "value": "> 4", "unit": "h"}, {"measurement": "concentrations at which turbidity was observed", "value": "25000 to 200000", "unit": "µM"}, {"measurement": "half-life", "setting": "in vitro [15]", "value": "> 4", "unit": "h"}, {"measurement": "Normalized chymotrypsin activity", "setting": "human chymotrypsin", "value": "1.05 and 0.8698 and 0.9664"}, {"measurement": "Protease activity in cell lysate normalised to DMSO (Figure S22D)", "setting": "human chymotrypsin", "value": "1.05 and 0.8698 and 0.9664"}, {"measurement": "EC50", "setting": "SARS-CoV-2 [5]", "value": 51, "unit": "nM"}, {"measurement": "EC50", "setting": "SARS-CoV-2 [6]", "value": 146, "unit": "nM"}, {"measurement": "EC50", "setting": "SARS-CoV-2 [10]; Severe acute respiratory syndrome coronavirus 2, Vero C1008, 72 h, read-out: EC50, inhibition of SARS-CoV-2 viral replication", "value": 6000, "unit": "nM"}, {"measurement": "EC50", "setting": "SARS-CoV-2 [10]; [19]", "value": 9000, "unit": "nM"}, {"measurement": "half-life", "setting": "in vitro [16]", "value": "> 1.33", "unit": "h"}, {"measurement": "half-life", "setting": "in vitro [17]", "value": "> 1.33", "unit": "h"}, {"measurement": "IC50", "setting": "Cathepsin L [18]", "value": 0.33, "unit": "nM"}]}]}
